In PubChem BioAssay (NCI):
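Results reflect a 48-hour exposure of cells in 96-well plates to compound at five concentrations. GI50 marks 50% less growth. The concentration for full growth arrest is given as TGI.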

Assays:
Assay in all cases: NCI tumour cell line growth inhibition, 48 h
[1] = tested on: 786-0 renal
[2] = tested on: DU-145 prostate
[3] = tested on: MCF7 breast
[4] = tested on: MDA-MB-435
[5] = tested on: MOLT-4 leukemia
[6] = tested on: RXF 393 renal
[7] = tested on: SF-539 CNS
[8] = tested on: SNB-19 CNS
[9] = tested on: T-47D breast
[10] = tested on: UACC-257 melanoma

Structure (SMILES)	GI50 [1] [µM]	TGI [1] [µM]	GI50 [2] [µM]	TGI [2] [µM]	GI50 [3] [µM]	TGI [3] [µM]	GI50 [4] [µM]	TGI [4] [µM]	GI50 [5] [µM]	TGI [5] [µM]	GI50 [6] [µM]	TGI [6] [µM]	GI50 [7] [µM]	TGI [7] [µM]	GI50 [8] [µM]	TGI [8] [µM]	GI50 [9] [µM]	TGI [9] [µM]	GI50 [10] [µM]	TGI [10] [µM]
CC(NNC(=S)N1CCCCCC1)c1ccc2ccccc2n1 (stereo not given)	3.38	16.8	2.22	18.2	0.338	15.2	2.25	21.4	2.18	> 55.5	4.7	21.2	1.68	12.6	4.16	> 100	1.91	28.7	1.74	17
OCCCCC#Cc1ccccc1C#Cc1ccccc1C(F)(F)F	10.3	24.9	6.16	19	10.6	31.6	0.847	2.75	2.63	12.9	3.39	12.5	12	25.2	18	34.3	19.8	47.2	17.7	31.9
C/C=C(\C)C(=O)O[C@H]1C=CC(=O)O[C@H]1CNC(=O)[C@H](C)O	13.3	26.1	31.7	> 100	19.7	42.3	20.1	44.7	21.4	46.6	19.3	40.1	19.4	35.4	30.5	> 100	20	73.9	17.1	37.6
CC1=Cc2cc3[n-]c(cc4nc(cc5[n-]c(cc1n2)cc5C)C(C)=C4CCC(=O)O)c(CCC(=O)O)c3C.[Pd+2]	> 21.8	> 49.6	> 100	> 100	> 100	> 100	68.9	> 100	10.1	27.5	17.9	> 37.9	3.71	13.7	9.52	34.1	> 100	> 100	10.8	29.3
Cc1ccc2c(N)c(C(=O)N[C@H]3CCc4cc(N5CC6CCC(C5)N6)ccc4C3)sc2n1	0.497	3.86	0.165	1.48	0.283	2.43	0.359	2.34	0.174	4.49	0.217	0.686	0.531	2.21	0.325	2.49	0.497	3.55	0.501	2.84
O=C(Nc1ccc(Cl)cc1)c1cc2ccccc2cc1O	3.81	> 100	3.18	> 100	1.9	> 100	3.84	> 100	4.19	> 100	7.19	> 100	4.01	> 100	4.19	> 100	1.11	9.49	3.25	7.91
O=C(NOCC1CC1)c1ccc(F)c(F)c1Nc1ccc(I)cc1Cl	2.7	> 35.1	4.07	> 100	3.11	19.1	0.298	> 55.5	3.35	25.6	2.11	8.95	2.24	9.73	1.38	97.3	3.15	> 52.3	0.0549	0.517
Cn1c(=O)c2[nH]c(CS(=O)(=O)Cc3nc4c([nH]3)c(=O)n(C)c(=O)n4C)nc2n(C)c1=O	–	> 100	–	> 100	–	> 100	–	> 100	–	> 100	–	> 100	–	> 100	–	> 100	–	> 100	–	> 100
Cc1[nH]c(/C=C2\C(=O)Nc3ccc(F)cc32)c(C)c1C(=O)NC[C@H](O)CN1CCOCC1	4.91	> 10	3.65	> 10	3.11	> 10	3.2	> 10	2.61	> 10	2.33	> 10	4.31	> 10	> 10	> 10	> 10	> 10	8.67	> 10
CCN(CC)CCOc1ccc(/C=C2\CC3C4CC=C5C[C@@H](N6CCCC6)CC[C@]5(C)C4CC[C@]3(C)[C@H]2O)cc1OC (stereo not given in full)	2.64	10.1	4.62	34.7	4.45	> 59	3.86	14.5	2.2	> 21.6	3.79	17.8	1.91	3.93	6.2	> 63.5	7.75	22.6	6.82	14.9
O=[N+]([O-])/C=C/c1c[nH]c2ccccc12	13.5	27.2	15.5	32.5	6.02	38.4	2.15	5.06	13.9	35.5	19.5	35.1	15.4	35.6	18.4	35.4	15	37.7	16.5	30.6
C=C1C(=O)OC2CC3(CO3)C3C(O)C(O)CC3(C)CC12 (stereo not given)	–	> 100	–	> 100	–	62.1	–	83.1	–	46.7	–	31.9	–	39.2	–	> 100	–	> 100	–	> 100
O=c1cc(-c2ccccc2)nc2n1CCN2Cc1ccccc1	39.7	> 100	34	> 100	41.9	> 100	31.1	> 100	20.2	79.5	46.2	> 100	27.8	73.5	80.9	> 100	65	> 100	37.1	> 100
